Measurements taken from article PMC9227096, “Design, Synthesis, and In Vitro, In Silico and In Cellulo Evaluation of New Pyrimidine and Pyridine Amide and Carbamate Derivatives as Multi-Functional Cholinesterase Inhibitors” (Pharmaceuticals, 2022).
Like-named read-outs stand apart in the source and are kept apart here.

What was measured:
MTT cell viability assay = type: cell-based; details: human, U-87 MG glioblastoma astrocytoma cells, U-87 MG cells; for viability at 24 h, 10 µM: 10 µM (12 and 18: up to 10 µM)
Procedure: Compounds 12, 14 and 18 were tested to evaluate the cytotoxic effects on U-87 MG Cell Line from human brain (glioblastoma astrocytoma) at concentration ranging from 1 to 50 µM.
The compounds 12, 14 and 18 were evaluated for cell viability effects using the MTT assay. Briefly, U-87 MG Cell Line from human brain (glioblastoma astrocytoma) (ATCC, Manassas, VA, USA) were seeded into 96-well microtiter plates (NunclonTM, Nunc, Germany) at a density of 1.5 × 10^4 cells/well. […]. After an incubation time of 24 h, the medium was replaced by a new, fresh medium containing 0.5 mg/mL MTT (Sigma, Deisenhofen, Germany). After 2 h at 37 °C in 5%, CO2 unreacted dye was removed and the cells were dissolved by DMSO (Merck, Darmstadt, Germany). Absorbance was read at 570 nm by a microtiter spectrophotometer plate reader. The data were expressed as absorbance relative to untreated cells in the same experiment and standardized to 100%. All data points were performed in triplicate and at least three independent experiments.

equine BChE (eqBChE) [1] = target: T1, equine BChE (eqBChE) (Equus caballus, UniProt P81908); test: Inhibition constant and mechanism vs. eqBChE by Dixon's method; type: biochemical; details: inhibitor 200-1800 nM, acetylthiocholine 100-300 µM; for Ki: eqBChE, read-out: Ki ± SD
T1 construct: purchased Sigma-Aldrich (Milan, Italy)
Procedure: The recorded data were analysed with the enzyme kinetic module of SigmaPlot in order to find the best fitting model of inhibition, using the linear regression analysis. The reference kinetic models used in the regression analysis were: competitive, non-competitive, uncompetitive and mixed. Each determination was repeated five times and incorrect values were discarded to reduce the standard deviation to within the limit of 5%. In this way, the regression lines obtained have a linear regression coefficient (R^2) higher than 0.98. […] The Dixon’s plots of tested compounds are reported in the Supplementary Materials (Figures S1 and S2).
The constant and the mechanism of inhibition vs. eqBChE were determined for the compounds 12 and 14. For each compound a 500 μM stock solution was prepared in H2O/DMSO and diluted in water to prepare solutions of opportune concentrations (10, 30 and 60 μM) in order to introduce the cuvette volumes ranging from 60 to 100 μL to obtain the desired final concentrations (200–1800 nM). The maximum amount of DMSO used for the preparation of the stock solution was calculated in order to obtain a DMSO content in cuvette of <0.033%.
An amount of 3.0 mL of 0.1 M phosphate buffer (pH = 7.4), containing DTNB (0.25 mM) and eqBChE (0.083 UmL^−1), were mixed with the opportune volume of inhibitor, to obtain, in the cuvette, a final inhibitor concentration between 200 and 1800 nM. With this solution the blank was made. […]. The absorbance variations were measured at 412 nm at 25 °C between 0.5 and 1.5 min.
In order to determine the inhibition constants (Ki) and inhibition mechanism the rates of hydrolysis at three different concentrations of substrate in the presence of five different concentration of inhibitor were measured. The recorded data were analyzed by the enzyme kinetic module of SigmaPlot (version 8.02), plotting the reciprocal of rate of hydrolysis (1/v, min/μM) vs. the concentration of inhibitor (nM), according to Dixon’s method in order to find the best fitting model of inhibition, as indicated by calculated linear regression coefficient R^2.

[2] = target: T2, Electrophorus electricus AChE (EeAChE) (Electrophorus electricus, UniProt O42275); test: Ellman's spectrophotometric method, percent inhibition of EeAChE (zero time and after 1 h incubation); type: biochemical
T2 construct: purchased Sigma-Aldrich (Milan, Italy)
Procedure: Regarding the synthesized compounds enzymatic inhibition studies were carried out on Electrophorus electricus AChE (EeAChE) and equine BChE (eqBChE), according to Ellman’s spectrophotometric method.
All other chemical and biological reagents and solvents used were of the highest analytical, commercially available grade. The water, utilized for the preparation of the phosphate buffer and of the solutions of compounds, was distilled and filtered on nylon membrane filters with 0.2 μm pore size with the Millipore® Filtration apparatus before each use. Micropipettes Labmate (BRAND Dig. 10–100 μL; Dig. 100–1000 μL; Dig. 0.1–2 μL) and Transferpette (HIGH TECH LAB LM200: 20–200 μL; LM5000: 1000–5000 μL) were used to collect the samples. The assays were carried out by double beam UV–Vis Lambda 40 Perkin Elmer spectrophotometer, using optical polystyrene cuvettes (10 × 10 × 45 mm, 340–800 nm optical transparency), each measure was repeated at least in triplicate. […] Vivaspin® 2 Sartorius, with a membrane of 3000 MWCO (molecular weight cutoff) consisting of polyethersulfone (PES), cellulose triacetate (CTA) and hydrosart, was used for the ultrafiltration procedures. An ALC PK110 bench-top centrifuge was used for centrifugation. The spectrophotometric method of Ellman, with minor modifications, was used to evaluate the inhibition of cholinesterase enzymes. […] EeAChE and eqBChE were periodically tested to evaluate the effective enzymatic activity.
An amount of 3.0 mL of a solution in 0.1 M phosphate buffer (pH = 7.4) containing DTNB (0.25 mM) and EeAChE (0.083 UmL^−1) or eqBChE (0.083 UmL^−1) were placed in a polystyrene cuvette of 1.0 cm path length; 1 µL of a solution in DMSO of the tested compound was added to obtain in cuvette concentration range 9 µM–0.09 µM. With this solution the blank was made.
Each experiment was repeated at least in triplicate.
The cuvettes were prepared consecutively at intervals of 3 min to allow equal incubation times.

equine BChE (eqBChE) [3] = target: T1, equine BChE (eqBChE); test: Determination of IC50 vs. eqBChE; type: biochemical; details: IC50 ± SE, 100 µM acetylthiocholine, compound 18 after incubation for 1 h
Procedure: The recorded data were analyzed with the enzyme kinetic module of SigmaPlot (Systat Software, Palo alto, CA, USA). Each measurement was replicated three times and the IC50 value obtained was confirmed by repeating the experiment twice. […] The IC50 plot of the tested compound is reported in the Supplementary Materials (Figure S3).
The recorded data were analyzed by the enzyme kinetic module of SigmaPlot, plotting the percentages of inhibition as a function of the different concentrations of inhibitor, expressed in logarithmic scale, in order to obtain the sigmoid graph, from which it was possible to determinate the IC50 value of the tested compound. The IC50 value was confirmed by repeating the experiment twice.

[4] = read-out: % Inhibition vs. EeAChE ± SD, [I] 9 µM, 0.0833 U/mL enzyme, 100 µM acetylthiocholine

T2 sequence (O42275 24-633): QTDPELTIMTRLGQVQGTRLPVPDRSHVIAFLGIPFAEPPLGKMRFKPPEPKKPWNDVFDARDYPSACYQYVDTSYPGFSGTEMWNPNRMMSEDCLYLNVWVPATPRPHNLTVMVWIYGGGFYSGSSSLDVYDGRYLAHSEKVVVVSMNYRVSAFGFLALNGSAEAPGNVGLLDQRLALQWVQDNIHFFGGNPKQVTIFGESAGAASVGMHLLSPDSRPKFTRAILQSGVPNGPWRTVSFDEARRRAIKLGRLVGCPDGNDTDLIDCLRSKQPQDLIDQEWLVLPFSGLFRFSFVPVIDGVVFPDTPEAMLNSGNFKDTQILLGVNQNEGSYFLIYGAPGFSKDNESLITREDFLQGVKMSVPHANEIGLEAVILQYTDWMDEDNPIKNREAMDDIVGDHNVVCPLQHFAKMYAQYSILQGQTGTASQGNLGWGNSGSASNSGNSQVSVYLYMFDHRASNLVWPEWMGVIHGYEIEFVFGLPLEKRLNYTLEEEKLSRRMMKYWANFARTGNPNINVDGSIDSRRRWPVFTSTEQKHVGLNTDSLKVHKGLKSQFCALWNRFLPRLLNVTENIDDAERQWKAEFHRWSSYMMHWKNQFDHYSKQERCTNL
T1 sequence (P81908 whole entry): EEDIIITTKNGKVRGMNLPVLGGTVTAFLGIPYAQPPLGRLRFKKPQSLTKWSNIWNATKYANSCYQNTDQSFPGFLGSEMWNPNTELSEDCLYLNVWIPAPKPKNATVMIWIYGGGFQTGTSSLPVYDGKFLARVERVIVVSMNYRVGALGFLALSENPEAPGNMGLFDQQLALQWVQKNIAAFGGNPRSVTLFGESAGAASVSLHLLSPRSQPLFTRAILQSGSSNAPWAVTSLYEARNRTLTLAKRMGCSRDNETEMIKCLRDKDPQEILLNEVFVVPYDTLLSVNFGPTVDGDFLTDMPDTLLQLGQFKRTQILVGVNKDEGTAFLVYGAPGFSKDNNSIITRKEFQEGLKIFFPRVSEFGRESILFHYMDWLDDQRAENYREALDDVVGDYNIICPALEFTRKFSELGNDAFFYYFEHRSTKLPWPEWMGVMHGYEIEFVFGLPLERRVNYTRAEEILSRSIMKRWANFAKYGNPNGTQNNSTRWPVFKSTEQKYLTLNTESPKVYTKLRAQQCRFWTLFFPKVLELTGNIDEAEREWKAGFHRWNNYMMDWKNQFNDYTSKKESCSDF

SMILES	viability at 24 h, 10 µM (MTT cell viability assay)	viability at 24 h, 50 µM (MTT cell viability assay)	Ki (equine BChE (eqBChE) [1])	Mechanism of inhibition on eqBChE (equine BChE (eqBChE) [1])	% Inhibition vs. EeAChE ± SD ([2]; [I] 9 µM, 0.0833 U/mL enzyme, 100 µM acetylthiocholine)	inhibition at 9 µM [2, 4]	IC50 (equine BChE (eqBChE) [3])	inhibition at 9 µM ([2]; 1 h, read-out: % Inhibition vs. EeAChE ± SD, [I] = 9 µM, t = 1 h incubation at 25 °C)
O=C(NCCCCCCNc1ccccn1)c1ccccc1 [Compound 12, N-(6-(pyridin-2-ylamino)hexyl)benzamide]	> 90%	> 35%	2990 ± 190 nM	Competitive	34.0 ± 2.1%	34%		
O=C(Cc1ccc(Oc2ccccc2)cc1)NCCCCCCNc1ccccn1 [Compound 14, 2-(4-phenoxyphenyl)-N-(6-(pyridin-2-ylamino)hexyl)acetamide]	> 65%	> 30%	621 ± 43 nM	Competitive		42.6 ± 1.4%		
O=C(NCCCCCCNc1ccccn1)Oc1ccccc1 [Compound 18, Phenyl (6-(pyridin-2-ylamino)hexyl)carbamate]	> 90%	> 35%					454 nM	41.6 ± 0.7%
